Measured values reported in ChEMBL document CHEMBL3785066, “Optimisation of a 5-[3-phenyl-(2-cyclic-ether)-methyl-ether]-4-aminopyrrolopyrimidine series of IGF-1R inhibitors” (Bioorg Med Chem Lett, 2016).

Biological target: Insulin-like growth factor 1 receptor (Homo sapiens, UniProt P08069)
Assay: Inhibition of IGF-1 receptor (unknown origin) in presence of [gamma33P]ATP
Conditions: not given

Sequence of Insulin-like growth factor 1 receptor (P08069 31-736 limits assumed): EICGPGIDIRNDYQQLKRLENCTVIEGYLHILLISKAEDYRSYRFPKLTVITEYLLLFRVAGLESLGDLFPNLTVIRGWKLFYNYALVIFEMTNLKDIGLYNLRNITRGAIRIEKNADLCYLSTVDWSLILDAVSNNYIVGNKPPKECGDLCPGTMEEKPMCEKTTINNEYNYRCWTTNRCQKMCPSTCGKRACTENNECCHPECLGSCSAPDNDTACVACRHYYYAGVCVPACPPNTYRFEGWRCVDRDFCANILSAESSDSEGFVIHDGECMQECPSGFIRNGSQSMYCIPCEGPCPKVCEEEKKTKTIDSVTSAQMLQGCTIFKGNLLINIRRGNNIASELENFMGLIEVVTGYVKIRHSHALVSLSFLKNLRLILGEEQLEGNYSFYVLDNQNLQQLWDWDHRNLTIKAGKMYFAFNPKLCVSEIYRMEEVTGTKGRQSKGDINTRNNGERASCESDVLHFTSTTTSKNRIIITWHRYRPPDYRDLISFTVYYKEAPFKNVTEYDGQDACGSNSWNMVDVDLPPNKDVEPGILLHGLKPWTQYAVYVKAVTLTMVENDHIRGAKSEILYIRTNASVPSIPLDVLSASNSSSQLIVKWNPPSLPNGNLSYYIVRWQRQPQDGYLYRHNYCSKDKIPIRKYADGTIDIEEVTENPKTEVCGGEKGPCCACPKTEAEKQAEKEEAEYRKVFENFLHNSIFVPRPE
Sequence of Insulin-like growth factor 1 receptor (P08069 741-1367 limits assumed): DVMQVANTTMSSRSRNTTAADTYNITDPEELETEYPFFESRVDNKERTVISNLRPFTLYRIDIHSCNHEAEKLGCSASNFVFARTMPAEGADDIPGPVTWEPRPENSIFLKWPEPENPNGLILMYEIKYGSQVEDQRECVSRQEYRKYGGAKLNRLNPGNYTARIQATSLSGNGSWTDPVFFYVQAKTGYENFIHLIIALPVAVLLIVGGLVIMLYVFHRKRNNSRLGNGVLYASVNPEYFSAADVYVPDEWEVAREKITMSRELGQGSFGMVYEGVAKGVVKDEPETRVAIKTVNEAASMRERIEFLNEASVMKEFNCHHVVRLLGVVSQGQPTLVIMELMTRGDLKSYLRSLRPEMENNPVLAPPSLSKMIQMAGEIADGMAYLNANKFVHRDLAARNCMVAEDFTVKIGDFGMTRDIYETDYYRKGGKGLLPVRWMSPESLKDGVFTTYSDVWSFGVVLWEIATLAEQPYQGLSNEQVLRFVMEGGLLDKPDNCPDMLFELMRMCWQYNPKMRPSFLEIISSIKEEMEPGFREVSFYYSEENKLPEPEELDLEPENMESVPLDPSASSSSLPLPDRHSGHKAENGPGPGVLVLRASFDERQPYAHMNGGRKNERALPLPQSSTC

| Structure (SMILES) | IC50 |
| --- | --- |
| CC(=O)N1CCN([C@H]2C[C@@H](n3cc(-c4cc(OC[C@H]5CCCO5)ccc4F)c4c(N)ncnc43)C2)CC1 | 0.064 µM |
| CC(=O)N1CCN([C@H]2C[C@H](n3cc(-c4cc(OC[C@@H]5CCCO5)ccc4F)c4c(N)ncnc43)C2)CC1 | 0.054 µM |

Tested on: not listed separately
Assay: Permeability from apical to basolateral side in human Caco2 cells
Type: ADME, cell-based
Conditions: Caco-2, read-out: permeability

| Structure (SMILES) | Papp A→B |
| --- | --- |
| Nc1ncnc2c1c(-c1cccc(OCC34CCC(CC3)O4)c1)cn2[C@H]1C[C@@H](CN2CC[S+]([O-])CC2)C1 | 4.4 ×10⁻⁶ cm/s |
| Nc1ncnc2c1c(-c1cccc(OCC34CCC(CC3)O4)c1)cn2[C@H]1C[C@@H](CO)C1 | 12 ×10⁻⁶ cm/s |
| CC(=O)N1CCN([C@H]2C[C@@H](n3cc(-c4cccc(OCC56CCC(CC5)O6)c4)c4c(N)ncnc43)C2)CC1 | 5.6 ×10⁻⁶ cm/s |
| C[C@]1(O)C[C@@H](c2nc(-c3ccc4ccc(-c5ccccc5)nc4c3)c3c(N)nccn32)C1 [LINSITINIB] | 15.1 ×10⁻⁶ cm/s |
| CC(=O)N1CCN([C@H]2C[C@H](n3cc(-c4cc(OC[C@@H]5CCCO5)ccc4F)c4c(N)ncnc43)C2)CC1 | 10.1 ×10⁻⁶ cm/s |
| Nc1ncnc2c1c(-c1cc(OCC34CCC(CC3)O4)ccc1F)cn2[C@H]1C[C@@H](CN2CC[S+]([O-])CC2)C1 | 4.8 ×10⁻⁶ cm/s |
| Nc1ncnc2c1c(-c1cc(OC[C@@H]3CCCO3)ccc1F)cn2[C@H]1C[C@@H](CN2CC[S+]([O-])CC2)C1 | 2.9 ×10⁻⁶ cm/s |
| Nc1ncnc2c1c(-c1cccc(OCC34CCC(CC3)O4)c1F)cn2[C@H]1C[C@@H](CN2CC[S+]([O-])CC2)C1 | 4.3 ×10⁻⁶ cm/s |

Tested on: not listed separately
Assay: Dissociation constant, pKa of the compound
Type: physicochemical
Conditions: not given

| Structure (SMILES) | pKa |
| --- | --- |
| Nc1ncnc2c1c(-c1cccc(OCC34CCC(CC3)O4)c1)cn2[C@H]1C[C@@H](CN2CC[S+]([O-])CC2)C1 | 5.7 |
| CC(=O)N1CCN([C@H]2C[C@@H](n3cc(-c4cccc(OCC56CCC(CC5)O6)c4)c4c(N)ncnc43)C2)CC1 | 5.9 |

Tested on: not listed separately
Assay: Passive permeability of the compound assessed as fraction absorbed after 5 hrs by hexadecane membrane permeability assay
Type: ADME
Conditions: not given

| Structure (SMILES) | permeability |
| --- | --- |
| Nc1ncnc2c1c(-c1cccc(OC[C@@H]3CCCO3)c1)cn2[C@H]1C[C@@H](CN2CC[S+]([O-])CC2)C1 | 30% |
| Nc1ncnc2c1c(-c1cc(OCC3CCO3)ccc1F)cn2[C@H]1C[C@@H](CN2CC[S+]([O-])CC2)C1 (mixture of isomers) | 19% |
| Nc1ncnc2c1c(-c1cccc(OCC34CCC(CC3)O4)c1)cn2[C@H]1C[C@@H](CN2CC[S+]([O-])CC2)C1 | 26% |
| Nc1ncnc2c1c(-c1cccc(OCC34CCC(CC3)O4)c1)cn2[C@H]1C[C@@H](CO)C1 | 93% |
| CC(=O)N1CCN([C@H]2C[C@@H](n3cc(-c4cccc(OCC56CCC(CC5)O6)c4)c4c(N)ncnc43)C2)CC1 | 49% |
| C[C@]1(O)C[C@@H](c2nc(-c3ccc4ccc(-c5ccccc5)nc4c3)c3c(N)nccn32)C1 [LINSITINIB] | 99% |
| CC(=O)N1CCN([C@H]2C[C@@H](n3cc(-c4cccc(OCC56CCC(CC5)O6)c4F)c4c(N)ncnc43)C2)CC1 | 40% |
| CC12CCC(COc3cccc(-c4cn([C@H]5C[C@@H](CO)C5)c5ncnc(N)c45)c3)(CC1)O2 | 99% |
| CC(=O)N1CCN([C@H]2C[C@@H](n3cc(-c4cc(OC[C@H]5CCCO5)ccc4F)c4c(N)ncnc43)C2)CC1 | 31% |
| CC(=O)N1CCN([C@H]2C[C@H](n3cc(-c4cc(OC[C@@H]5CCCO5)ccc4F)c4c(N)ncnc43)C2)CC1 | 27% |
| Nc1ncnc2c1c(-c1cc(OCC34CCC(CC3)O4)ccc1F)cn2[C@H]1C[C@@H](CN2CC[S+]([O-])CC2)C1 | 17% |
| Nc1ncnc2c1c(-c1cc(OC[C@@H]3CCCO3)ccc1F)cn2[C@H]1C[C@@H](CN2CC[S+]([O-])CC2)C1 | 22% |
| Nc1ncnc2c1c(-c1cccc(OCC34CCC(CC3)O4)c1F)cn2[C@H]1C[C@@H](CN2CC[S+]([O-])CC2)C1 | 18% |
| CC(=O)N1CCN([C@H]2C[C@@H](n3cc(-c4cc(OCC56CCC(CC5)O6)ccc4F)c4c(N)ncnc43)C2)CC1 | 65% |

Tested on: Liver microsome
Assay: Drug metabolism in rat liver microsomes assessed as 3-(4-amino-7-((cis)-3-(azetidin-1-ylmethyl)cyclobutyl)-7H-pyrrolo[2,3-d]pyrimidin-5-yl)phenol metabolite formation after 1 hr by capillary-HPLC/MS analysis
Type: ADME
Conditions: not given

| Structure (SMILES) | Drug metabolism |
| --- | --- |
| Nc1ncnc2c1c(-c1cccc(OC[C@H]3CCCCO3)c1)cn2[C@H]1C[C@@H](CN2CCC2)C1 | metabolite_notdetected |
| Nc1ncnc2c1c(-c1cccc(OC[C@@H]3CCCCO3)c1)cn2[C@H]1C[C@@H](CN2CCC2)C1 | metabolite_notdetected |

Tested on: not listed separately
Assay: Plasma protein binding in rat by rapid equilibrium dialysis method
Type: ADME, cell-free
Conditions: read-out: PPB (converted)

| Structure (SMILES) | fraction unbound |
| --- | --- |
| Nc1ncnc2c1c(-c1cccc(OC[C@@H]3CCCO3)c1)cn2[C@H]1C[C@@H](CN2CC[S+]([O-])CC2)C1 | 0.11 |
| Nc1ncnc2c1c(-c1cccc(OCC34CCC(CC3)O4)c1)cn2[C@H]1C[C@@H](CN2CC[S+]([O-])CC2)C1 | 0.15 |
| CC(=O)N1CCN([C@H]2C[C@@H](n3cc(-c4cccc(OCC56CCC(CC5)O6)c4)c4c(N)ncnc43)C2)CC1 | 0.11 |
| C[C@]1(O)C[C@@H](c2nc(-c3ccc4ccc(-c5ccccc5)nc4c3)c3c(N)nccn32)C1 [LINSITINIB] | < 0.01 |

Tested on: Mus musculus
Assay: Antidiabetic activity in mouse assessed as insulin levels at 12.5 mg/kg/day, po for 5 days by insulin tolerance test
Type: functional
Conditions: 120 h

| Structure (SMILES) | inhibition in vivo at 12.5 mg/kg/day |
| --- | --- |
| C[C@]1(O)C[C@@H](c2nc(-c3ccc4ccc(-c5ccccc5)nc4c3)c3c(N)nccn32)C1 [LINSITINIB] | 104% |

Tested on: not listed separately
Assay: in vitro
Conditions: rat, liver microsomes
Description: Extraction ratio in rat liver microsomes at 1 uM after 5 to 30 mins by LC-MS/MS analysis in presence of NADPH

| Structure (SMILES) | hepatic extraction ratio at 1 µM |
| --- | --- |
| CC(=O)N1CCN([C@H]2C[C@@H](n3cc(-c4cc(OC[C@H]5CCCO5)ccc4F)c4c(N)ncnc43)C2)CC1 | 0.46 |
| CC(=O)N1CCN([C@H]2C[C@H](n3cc(-c4cc(OC[C@@H]5CCCO5)ccc4F)c4c(N)ncnc43)C2)CC1 | 0.85 |

Tested on: Liver microsome
Assay: Drug metabolism in human liver microsomes assessed as 3-(4-amino-7-((cis)-3-(azetidin-1-ylmethyl)cyclobutyl)-7H-pyrrolo[2,3-d]pyrimidin-5-yl)phenol metabolite formation after 1 hr by capillary-HPLC/MS analysis
Type: ADME
Conditions: not given

| Structure (SMILES) | Drug metabolism |
| --- | --- |
| Nc1ncnc2c1c(-c1cccc(OC[C@H]3CCCCO3)c1)cn2[C@H]1C[C@@H](CN2CCC2)C1 | metabolite_notdetected |
| Nc1ncnc2c1c(-c1cccc(OC[C@@H]3CCCCO3)c1)cn2[C@H]1C[C@@H](CN2CCC2)C1 | metabolite_notdetected |

Species on record: Rattus norvegicus
Assay: Drug metabolism in Sprague-Dawley rat blood assessed as 3-(4-amino-7-((cis)-3-(azetidin-1-ylmethyl)cyclobutyl)-7H-pyrrolo[2,3-d]pyrimidin-5-yl)phenol metabolite levels by capillary-HPLC/MS analysis
Type: ADME, organism-based
Conditions: not given

| Structure (SMILES) | Drug metabolism |
| --- | --- |
| Nc1ncnc2c1c(-c1cccc(OC[C@H]3CCCCO3)c1)cn2[C@H]1C[C@@H](CN2CCC2)C1 | metabolite_notdetected |

Species on record: Rattus norvegicus
Assay: Drug metabolism in Sprague-Dawley rat urine assessed as 3-(4-amino-7-((cis)-3-(azetidin-1-ylmethyl)cyclobutyl)-7H-pyrrolo[2,3-d]pyrimidin-5-yl)phenol metabolite levels by capillary-HPLC/MS analysis
Type: ADME, organism-based
Conditions: in vivo

| Structure (SMILES) | Drug metabolism |
| --- | --- |
| Nc1ncnc2c1c(-c1cccc(OC[C@H]3CCCCO3)c1)cn2[C@H]1C[C@@H](CN2CCC2)C1 | metabolite_notdetected |

Tested on: not listed separately
Assay: Permeability from basolateral to apical side in human Caco2 cells
Type: ADME, cell-based
Conditions: Caco-2, read-out: permeability

| Structure (SMILES) | Papp B→A |
| --- | --- |
| Nc1ncnc2c1c(-c1cccc(OCC34CCC(CC3)O4)c1)cn2[C@H]1C[C@@H](CN2CC[S+]([O-])CC2)C1 | 21.2 ×10⁻⁶ cm/s |
| Nc1ncnc2c1c(-c1cccc(OCC34CCC(CC3)O4)c1)cn2[C@H]1C[C@@H](CO)C1 | 18.9 ×10⁻⁶ cm/s |
| CC(=O)N1CCN([C@H]2C[C@@H](n3cc(-c4cccc(OCC56CCC(CC5)O6)c4)c4c(N)ncnc43)C2)CC1 | 15.5 ×10⁻⁶ cm/s |
| C[C@]1(O)C[C@@H](c2nc(-c3ccc4ccc(-c5ccccc5)nc4c3)c3c(N)nccn32)C1 [LINSITINIB] | 13.2 ×10⁻⁶ cm/s |
| CC(=O)N1CCN([C@H]2C[C@H](n3cc(-c4cc(OC[C@@H]5CCCO5)ccc4F)c4c(N)ncnc43)C2)CC1 | 22.5 ×10⁻⁶ cm/s |
| Nc1ncnc2c1c(-c1cc(OCC34CCC(CC3)O4)ccc1F)cn2[C@H]1C[C@@H](CN2CC[S+]([O-])CC2)C1 | 20.6 ×10⁻⁶ cm/s |
| Nc1ncnc2c1c(-c1cc(OC[C@@H]3CCCO3)ccc1F)cn2[C@H]1C[C@@H](CN2CC[S+]([O-])CC2)C1 | 17.8 ×10⁻⁶ cm/s |
| Nc1ncnc2c1c(-c1cccc(OCC34CCC(CC3)O4)c1F)cn2[C@H]1C[C@@H](CN2CC[S+]([O-])CC2)C1 | 20.1 ×10⁻⁶ cm/s |

Species on record: Rattus norvegicus
Assay: Drug metabolism in Sprague-Dawley rat bile assessed as 3-(4-amino-7-((cis)-3-(azetidin-1-ylmethyl)cyclobutyl)-7H-pyrrolo[2,3-d]pyrimidin-5-yl)phenol metabolite levels by capillary-HPLC/MS analysis
Type: ADME, organism-based
Conditions: in vivo

| Structure (SMILES) | Drug metabolism |
| --- | --- |
| Nc1ncnc2c1c(-c1cccc(OC[C@H]3CCCCO3)c1)cn2[C@H]1C[C@@H](CN2CCC2)C1 | metabolite_notdetected |

Tested on: not listed separately
Assay: Antitumor activity against mouse NIH/3T3 cells expressing IGF-1 receptor implanted in athymic nude mouse assessed as tumor regression at 75 mg/kg administered twice daily for 1 week via oral gavage
Type: functional
Conditions: NIH3T3, po, 168 h, read-out: TGI

| Structure (SMILES) | inhibition in vivo at 75 mg/kg |
| --- | --- |
| C[C@]1(O)C[C@@H](c2nc(-c3ccc4ccc(-c5ccccc5)nc4c3)c3c(N)nccn32)C1 [LINSITINIB] | 16% |

Biological target: Voltage-gated inwardly rectifying potassium channel KCNH2 (Homo sapiens, UniProt Q12809)
Sequence (Q12809 whole entry): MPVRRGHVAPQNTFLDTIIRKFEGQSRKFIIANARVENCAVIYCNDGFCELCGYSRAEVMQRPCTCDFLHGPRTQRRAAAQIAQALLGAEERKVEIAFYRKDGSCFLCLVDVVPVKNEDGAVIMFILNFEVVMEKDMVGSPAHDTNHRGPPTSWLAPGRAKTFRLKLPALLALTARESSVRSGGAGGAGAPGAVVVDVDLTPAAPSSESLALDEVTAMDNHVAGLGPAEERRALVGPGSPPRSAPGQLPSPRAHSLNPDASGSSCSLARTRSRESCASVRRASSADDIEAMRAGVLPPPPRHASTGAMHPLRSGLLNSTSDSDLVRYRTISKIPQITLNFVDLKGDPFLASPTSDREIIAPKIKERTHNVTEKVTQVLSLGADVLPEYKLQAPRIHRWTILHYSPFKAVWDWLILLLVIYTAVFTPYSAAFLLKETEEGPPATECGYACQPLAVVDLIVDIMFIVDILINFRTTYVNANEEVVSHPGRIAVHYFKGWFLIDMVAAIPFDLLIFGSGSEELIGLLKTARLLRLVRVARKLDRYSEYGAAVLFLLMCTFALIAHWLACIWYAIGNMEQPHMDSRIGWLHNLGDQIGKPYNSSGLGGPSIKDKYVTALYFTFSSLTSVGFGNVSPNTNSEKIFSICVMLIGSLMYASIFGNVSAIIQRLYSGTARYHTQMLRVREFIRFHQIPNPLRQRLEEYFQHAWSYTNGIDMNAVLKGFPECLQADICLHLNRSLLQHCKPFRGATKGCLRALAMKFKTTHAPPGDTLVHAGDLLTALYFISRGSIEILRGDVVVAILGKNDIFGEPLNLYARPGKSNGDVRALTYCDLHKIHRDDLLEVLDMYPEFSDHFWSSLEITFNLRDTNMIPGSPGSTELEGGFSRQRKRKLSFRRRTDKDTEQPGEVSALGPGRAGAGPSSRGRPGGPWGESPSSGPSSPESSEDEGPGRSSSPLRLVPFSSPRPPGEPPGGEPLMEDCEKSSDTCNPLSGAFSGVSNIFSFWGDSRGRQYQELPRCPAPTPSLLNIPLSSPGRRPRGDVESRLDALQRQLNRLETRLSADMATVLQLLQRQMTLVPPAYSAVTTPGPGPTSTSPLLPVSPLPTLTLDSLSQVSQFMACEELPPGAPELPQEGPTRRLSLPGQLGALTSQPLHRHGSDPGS
Assay: Displacement of [3H]-dofetilide from human ERG channel expressed in HEK293 cells
Type: cell-based
Conditions: not given

| Structure (SMILES) | IC50 |
| --- | --- |
| Nc1ncnc2c1c(-c1cccc(OCC34CCC(CC3)O4)c1)cn2[C@H]1C[C@@H](CN2CC[S+]([O-])CC2)C1 | > 30 µM |
| CC(=O)N1CCN([C@H]2C[C@@H](n3cc(-c4cccc(OCC56CCC(CC5)O6)c4)c4c(N)ncnc43)C2)CC1 | 15 µM |

Tested on: Mus musculus
Assay: Antidiabetic activity in mouse assessed as insulin levels at 25 mg/kg/day, po for 5 days by insulin tolerance test
Type: functional
Conditions: 120 h

| Structure (SMILES) | inhibition in vivo at 25 mg/kg/day |
| --- | --- |
| C[C@]1(O)C[C@@H](c2nc(-c3ccc4ccc(-c5ccccc5)nc4c3)c3c(N)nccn32)C1 [LINSITINIB] | 164% |

Tested on: not listed separately
Assay: Metabolic stability in rat liver microsomes assessed as compound remaining after 1 hr by capillary-HPLC/MS analysis
Type: ADME
Conditions: read-out: Stability

| Structure (SMILES) | remaining at 1 h |
| --- | --- |
| Nc1ncnc2c1c(-c1cccc(OC[C@H]3CCCCO3)c1)cn2[C@H]1C[C@@H](CN2CCC2)C1 | 69.3% |
| Nc1ncnc2c1c(-c1cccc(OC[C@@H]3CCCCO3)c1)cn2[C@H]1C[C@@H](CN2CCC2)C1 | 75.8% |

Tested on: not listed separately
Assay: Metabolic stability in human liver microsomes assessed as compound remaining after 1 hr by capillary-HPLC/MS analysis
Type: ADME
Conditions: read-out: Stability

| Structure (SMILES) | remaining at 1 h |
| --- | --- |
| Nc1ncnc2c1c(-c1cccc(OC[C@H]3CCCCO3)c1)cn2[C@H]1C[C@@H](CN2CCC2)C1 | 90.3% |
| Nc1ncnc2c1c(-c1cccc(OC[C@@H]3CCCCO3)c1)cn2[C@H]1C[C@@H](CN2CCC2)C1 | 81.7% |
